From publication PMC4450258 (Molecular neurobiology, 2014)

Biological target: T1, Sterol carrier protein 2 (SCP-2) (Homo sapiens, UniProt P22307)
T1 sequence (P22307 425-547): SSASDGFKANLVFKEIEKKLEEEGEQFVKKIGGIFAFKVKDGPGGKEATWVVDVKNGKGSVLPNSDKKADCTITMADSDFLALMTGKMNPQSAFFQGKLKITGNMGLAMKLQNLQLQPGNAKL
Assay type: biochemical

CCCCC/C=C\C/C=C\C/C=C\C/C=C\CCCC(=O)NCCO [AEA, N-arachidonylethanolamine]
inhibition of recombinant SCP-2-mediated [14C]cholesterol transfer from SUVs to: ~ 50 µM
